Measured values from PMC12097374 (Bioconjugate chemistry, 2017).

Tests used:
[1] = test system: C6 rat glioma cells; assay: Confocal cell imaging and displacement in live C6 rat glioma cells; format: cell-based; conditions: 0.1 μM probe 29, 100-fold higher concentration (10 μM) of competitor
[2] = molecular target: TSPO (Rattus norvegicus, UniProt P16257); conditions: cited from earlier work

CCC(C)N(C)C(=O)c1cc2ccccc2c(-c2ccccc2Cl)n1 (stereo not drawn) [PK 11195]
displacement of fluorescent probe 29 in C6 glioma cells [1]: completely displaced

CCc1cc(CC)n2nc(-c3ccc(OCCF)cc3)c(CC(=O)N(CC)CC)c2n1 [VUIIS 1008, 2-(5,7-diethyl-2-(4-(2-fluoroethoxy)phenyl)-pyrazolo[1,5-a]pyrimidin-3-yl)-N,N-diethylacetamide]
displacement of fluorescent probe 29 in C6 glioma cells [1]: completely displaced
fold enhancement in affinity compared with DPA-714 [2]: 36 fold
